Source: patent US12304890B2, “R-type pyridyloxycarboxylic acid, salt and ester derivative thereof, and preparation method therefor, and herbicidal composition and application thereof” (Qingdao Kingagroot Chemical Compound Co., Ltd., priority 2018, dated 2025)

Key:
Assay type in all cases: in vivo
rice = assay: Post-emergence test experiment, rice (crop selectivity); conditions: 200 g a.i./ha, 3 weeks
Protocol: (§1) The above described growth inhibition rate is fresh weight inhibition rate.
(§2) Post-emergence test experiment: Monocotyledonous and dicotyledonous weed seeds and main crop seeds (i. e. wheat, corn, rice, soybean, cotton, oilseed, millet and sorghum.) were put into a plastic pot loaded with soil. Then covered with 0.5-2 cm soil, the seeds were allowed to grow in good greenhouse environment. The test plants were treated at 2-3 leaf stage 2 weeks after sowing. The test compounds of the invention were dissolved with acetone respectively, then added with tween-80, and using 1.5 liters per hectare of an emulsible concentrate of methyl oleate as a synergist, and diluted by certain amount of water to certain concentration. The solution was sprayed to the plants with a sprayer. Then the plants were cultured for 3 weeks in the greenhouse, and the experiment result of weed controlling effect was listed in tables 4-5.

[1] = tested on: Monocotyledonous and dicotyledonous weed seeds and main crop seeds; assay: Post-emergence test experiment, other weeds and crops (Table 4, 1000 g a.i./ha); conditions: 3 weeks in greenhouse, fresh weight inhibition
In short: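 Weed and crop seeds (wheat, corn, rice, soybean, cotton, oilseed, millet, sorghum) sown in soil pots in a greenhouse and sprayed at 2-3 leaf stage, 2 weeks after sowing. Compound in acetone/tween-80 with methyl oleate concentrate (1.5 L/ha) as synergist. Effect recorded as fresh-weight growth inhibition rate.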

Digitaria sanguinalis = assay: Post-emergence test experiment, Digitaria sanguinalis; conditions: for Digitaria sanguinalis, activity level (growth inhibition rate): 200 g a.i./ha, 3 weeks, weed resistant to cyhalofop-butyl; for Activity level (growth inhibition rate), Digitaria sanguinalis: 1000 g a.i./ha, 3 weeks in greenhouse, fresh weight inhibition
In short: (§3)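 Greenhouse-grown plants sprayed at the 2-3 leaf stage, 2 weeks after sowing, with compound in acetone/tween-80 diluted in water plus 1.5 L/ha methyl oleate emulsifiable concentrate as synergist. Effect scored 3 weeks later as fresh weight inhibition rate.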

Echinochloa crusgalli = assay: Post-emergence test experiment, Echinochloa crusgalli; conditions: for Echinochloa crusgalli, activity level (growth inhibition rate): 200 g a.i./ha, 3 weeks, weed resistant to ALS inhibitor and ACCe herbicides; for Activity level (growth inhibition rate), Echinochloa crusgalli: 1000 g a.i./ha, 3 weeks in greenhouse, fresh weight inhibition
In short: as §3

[2] = tested on: Semen Euphorbiae Lathyridis; assay: Post-emergence test experiment, Semen Euphorbiae Lathyridis; conditions: 200 g a.i./ha, 3 weeks, weed resistant to cyhalofop-butyl
Protocol: as §1, §2

SMILES | rice, activity level (growth inhibition rate) (rice) | Activity level (growth inhibition rate), Abutilon theophrasti Medic. [1] | Activity level (growth inhibition rate), Galium aparine [1] | Activity level (growth inhibition rate), Monochoria Vaginalis [1] | Digitaria sanguinalis, activity level (growth inhibition rate) (Digitaria sanguinalis) | Activity level (growth inhibition rate), Digitaria sanguinalis (Digitaria sanguinalis) | Echinochloa crusgalli, activity level (growth inhibition rate) (Echinochloa crusgalli) | Activity level (growth inhibition rate), Echinochloa crusgalli (Echinochloa crusgalli) | Semen Euphorbiae Lathyridis, activity level (growth inhibition rate) [2]
CCSC(=O)[C@@H](C)Oc1nc(F)c(Cl)c(N)c1Cl [Compound 2-72] | 0 (Level 0: the growth inhibition rate is less than 5%) | 5 (Level 5: the growth inhibition rate is greater than 85%) | 5 (Level 5: the growth inhibition rate is greater than 85%) | 5 (Level 5: the growth inhibition rate is greater than 85%) | 5 (Level 5: the growth inhibition rate is greater than 85%) | 5 (Level 5: the growth inhibition rate is greater than 85%) | 5 (Level 5: the growth inhibition rate is greater than 85%) | 5 (Level 5: the growth inhibition rate is greater than 85%) | 5 (Level 5: the growth inhibition rate is greater than 85%)
CCCCCCCCCCCOC(=O)[C@@H](C)Oc1nc(F)c(Cl)c(N)c1Cl [Compound 2-215] | 0 (Level 0: the growth inhibition rate is less than 5%) | 5 (Level 5: the growth inhibition rate is greater than 85%) | 5 (Level 5: the growth inhibition rate is greater than 85%) | 5 (Level 5: the growth inhibition rate is greater than 85%) | 5 (Level 5: the growth inhibition rate is greater than 85%) | 5 (Level 5: the growth inhibition rate is greater than 85%) | 4 (Level 4: the growth inhibition rate is equal to or greater than 60% and less than 85%) | 5 (Level 5: the growth inhibition rate is greater than 85%) | 5 (Level 5: the growth inhibition rate is greater than 85%)
CC(Oc1nc(F)c(Cl)c(N)c1Cl)C(=O)OCCN(C)C (stereo not drawn) [Compound 2-283] | 0 (Level 0: the growth inhibition rate is less than 5%) | 5 (Level 5: the growth inhibition rate is greater than 85%) | 5 (Level 5: the growth inhibition rate is greater than 85%) | 5 (Level 5: the growth inhibition rate is greater than 85%) | 5 (Level 5: the growth inhibition rate is greater than 85%) | 5 (Level 5: the growth inhibition rate is greater than 85%) | 5 (Level 5: the growth inhibition rate is greater than 85%) | 5 (Level 5: the growth inhibition rate is greater than 85%) | 5 (Level 5: the growth inhibition rate is greater than 85%)
CCCCCCCOC(=O)[C@@H](C)Oc1nc(F)c(Cl)c(N)c1Cl [Compound 2-121] | 0 (Level 0: the growth inhibition rate is less than 5%) | 5 (Level 5: the growth inhibition rate is greater than 85%) | 5 (Level 5: the growth inhibition rate is greater than 85%) | 5 (Level 5: the growth inhibition rate is greater than 85%) | 5 (Level 5: the growth inhibition rate is greater than 85%) | 5 (Level 5: the growth inhibition rate is greater than 85%) | 5 (Level 5: the growth inhibition rate is greater than 85%) | 5 (Level 5: the growth inhibition rate is greater than 85%) | 5 (Level 5: the growth inhibition rate is greater than 85%)
